Measurements as given in patent US20230202989A1, “COMPOUNDS” (JANSSEN PHARMACEUTICA NV, priority 2020, published 2023).
Where two headings read alike, the source gives them in different places.

Legend:
TNF = test: PBMC assay: TNF cytokine levels after LPS stimulation (MSD); format: cell-based; conditions: human PBMCs, 100 ng/ml LPS for 6 hrs
Protocol: (§1) Peripheral venous blood s collected from health individuals and human peripheral blood mononuclear cells (PBMCs) ere isolated from blood by Ficoll Histopaque (Sigma-Aldrich, A0561) density gradient centrifugation. After isolation, PBMCs were stored in liquid nitrogen for later use. Upon thawing, PBMC cell viability was determined in growth medium (RPMI media supplemented with 10% fetal bovine serum, 1% Pen-Strep and 1% L-glutamine). Compounds were spotted in a 1:3 serial dilution in DMSO and diluted to the final concentration in 30 μl medium in 96 well plates (Falcon, 353072). PBMCs were added at a density of 7.5×10^4 cells per well and incubated for 30 min in a 5% CO2 incubator at 37° C. LPS stimulation was performed by addition of 100 ng/ml LPS (final concentration, Invivogen, tlrl-smlps) for 6 hrs followed by collection of cellular supernatant and the analysis of IL-1β (μM) and TNF cytokines levels (μM) via MSD technology according to manufacturers' guidelines (MSD, K151A0H).
(§2) The IC50 values (for IL-1β) and EC50 values (TNF) were obtained on compounds of the invention/examples, and are depicted in the following table: […]

IL-1β = test: PBMC assay: inhibition of IL-1β release after LPS stimulation (MSD); format: cell-based; conditions: human PBMCs, 100 ng/ml LPS for 6 hrs, MSD, 96 well plates, read-out: IL1β IC50
Protocol: as §1, with “Compounds were spotted in a 1:3 serial dilution in DMSO and diluted to the final concentration in 30 μl medium in 96 well plates (Falcon, 353072).” left out
as §2

Row | Structure (SMILES) | EC50 (TNF; Homo sapiens, PBMC, 6 h) [µM] | IC50 (IL-1β; Homo sapiens, PBMC, 6 h) [µM] | further results
1 | CC(C)c1nn(CC(=O)N[C@@H]2CC[C@@](C)(O)C2)c(=O)c2ccc(C(F)(F)F)cc12 [Final Cpd X110] | > 20 | 1.64 | 
2 | Cc1nnc2n1CC(NC(=O)Cn1nc(C(C)C)c3cc(C(F)(F)F)ccc3c1=O)CC2 (centres unmarked) [Final Cpd X68] | > 20 | 0.728 | 
3 | CC(C)c1nn(CC(=O)Nc2ccc3c(ncn3C)n2)c(=O)c2ccc(C(F)(F)F)cc12 [Final Cpd X160] | > 20 | 13.4 | 
4 | CC(C)c1nn(CC(=O)Nc2ccc3c(c2)CCN3C(C)C)c(=O)c2ccc(C(F)(F)F)cc12 [Final Cpd X173] | > 20 | > 20 | 
5 | CC(C)c1nn(CC(=O)Nc2ccc3nn(C)cc3c2)c(=O)c2ccc(C(F)(F)F)cc12 [Final Cpd X137] | > 20 | 3.86 | 
6 | CC(C)Cc1nn(CC(=O)Nc2ccc3nncn3c2)c(=O)c2ccc(C(F)(F)F)cc12 [Final Cpd X144] | > 20 | 4.95 | 
7 | CO[C@H]1CC[C@H](NC(=O)Cn2nc(C(C)C)c3cc(C(F)(F)F)ccc3c2=O)CC1 [Final Cpd X177] | > 20 | > 20 | 
8 | CCc1nn(CC(=O)Nc2ccncn2)c(=O)c2ccc(C3CC3)cc12 [Final Cpd 5] | > 10 | 0.42 | 
9 | CC(C)c1nn(CC(=O)Nc2ccncn2)c(=O)c2ccc(C#N)cc12 [X-1061] | > 20 | > 20 | 
10 | COC(C)(C)c1ccc2c(=O)n(CC(=O)N[C@H]3C[C@@](C)(O)C3)nc(C(C)C)c2c1 [X-1058] | > 20 | 4.55 | 
11 | CC(C)c1nn(CC(=O)Nc2ccc3c(C#N)ncn3c2)c(=O)c2ccc(C(F)(F)F)cc12 [Final Cpd X88] | > 20 | 0.924 | 
12 | CC(C)c1nn(CC(=O)Nc2ccc3nccn3c2)c(=O)c2ccc(C(F)(F)F)cc12 [Final Cpd X31] | > 20 | 0.233 | 
13 | CC[C@@H](C)c1nn(CC(=O)Nc2ccc3nncn3c2)c(=O)c2ccc(C(F)(F)F)cc12 (single isomer, unassigned) [Final Cpd X12] | > 20 | 0.113 | 
14 | CC(C)c1nn(CC(=O)Nc2ccc3nncn3c2)c(=O)c2ccc(C(F)(F)C(F)(F)F)cc12 [X-1052] | > 20 | 1.26 | 
15 | CC(C)CN1CCc2cc(NC(=O)Cn3nc(C(C)C)c4cc(C(F)(F)F)ccc4c3=O)ccc21 [Final Cpd X168] | > 20 | > 20 | 
16 | CC(C)c1nn(CC(=O)N[C@H]2C[C@@H](O)CN(C)C2)c(=O)c2ccc(C(F)(F)F)cc12 [Final Cpd X122] | > 20 | 2.68 | 
17 | CC(C)c1nn(CC(=O)Nc2cn3cnnc3cn2)c(=O)c2ccc(C(F)(F)F)cc12 [Final Cpd X14, N-([1,2,4]triazolo[4,3-a]pyrazin-6-yl)-2-(4-isopropyl-1-oxo-6-(trifluoromethyl)phthalazin-2(1H)-yl)acetamide] | > 20 | 0.116 | 
18 | CC(O)c1nn(CC(=O)Nc2ccncn2)c(=O)c2ccc(C(F)(F)F)cc12 (centres unmarked) [Final Cpd X103] | > 20 | 1.32 | 
19 | O=C(Cn1nc(C2(F)CC2)c2cc(C(F)(F)F)ccc2c1=O)Nc1ccc2nncn2c1 [Final Cpd X142] | > 20 | 4.74 | 
20 | O=C(Cn1nc(C2CC2)c2cc(Cl)ccc2c1=O)Nc1ccc2nncn2c1 [X-1071] | > 20 | 0.398 | 
21 | CC(C)c1nn(CC(=O)Nc2cc(Br)c3nncn3c2)c(=O)c2ccc(C(F)(F)F)cc12 [Final Cpd X52, N-(8-Bromo-[1,2,4]triazolo[4,3-a]pyridin-6-yl)-2-(4-isopropyl-1-oxo-6-(trifluoromethyl)phthalazin-2(1H)-yl)acetamide] | > 20 | 0.442 | 
22 | CC(c1nn(CC(=O)Nc2ccc3nncn3c2)c(=O)c2ccc(C(F)(F)F)cc12)C(F)(F)F (centres unmarked) [Final Cpd X59] | > 20 | 0.561 | 
23 | C[C@]1(O)C[C@@H](NC(=O)Cn2nc(C3CC3)c3cc(Br)ccc3c2=O)C1 [X-1022] | > 20 | 0.057 | 
24 | CC(C)c1nn(CC(=O)N[C@@H]2C[C@H](O)CN(C)C2)c(=O)c2ccc(C(F)(F)F)cc12 (mixture of isomers) [Final Cpd X133] |  |  | EC50 (TNF): > 20 µM; IC50 (IL-1β): 3.38 µM

Row | Structure (SMILES) | EC50 (TNF; Homo sapiens, PBMC, 6 h) [µM] | IC50 (IL-1β; Homo sapiens, PBMC, 6 h) [µM] | further results
25 | CC(C)c1nn(CC(=O)N[C@H]2C[C@@](C)(O)C2)c(=O)c2ccc(C3CC3)cc12 [Final Cpd 32] | > 20 | 0.213 | 
26 | CC(C)c1nn(CC(=O)Nc2ccc(=O)n(C)n2)c(=O)c2ccc(C(F)(F)F)cc12 [Final Cpd X33] | > 20 | 0.252 | 
27 | Cc1nnc2n1C[C@H](NC(=O)Cn1nc(C(C)C)c3cc(C(F)(F)F)ccc3c1=O)CC2 (single isomer, unassigned) [Final Cpd X163] | > 20 | 15.1 | 
28 | CC[C@]1(O)C[C@@H](NC(=O)Cn2nc(C(C)C)c3cc(Br)ccc3c2=O)C1 [X-1090, 2-(6-bromo-4-isopropyl-1-oxophthalazin-2(1H)-yl)-N-((1r,3s)-3-ethyl-3-hydroxycyclobutyl)acetamide] |  |  | EC50 (TNF; PBMC): > 20 µM; IC50 (IL-1β; PBMC): 0.122 µM
29 | CC(C)c1nn(CC(=O)Nc2ccc(I)nn2)c(=O)c2ccc(C(F)(F)F)cc12 [Final Cpd X154] | > 20 | 3.09 | 
30 | CC(=O)N1C[C@H](O)C[C@H](NC(=O)Cn2nc(C(C)C)c3cc(C(F)(F)F)ccc3c2=O)C1 (single isomer, unassigned) [Final Cpd X150] | > 20 | 7.37 | 
31 | CC(C)c1nn(CC(=O)Nc2ccncn2)c(=O)c2ccc(Cl)cc12 [X-1028] | > 20 | 0.128 | 
32 | CC(C)c1nn(CC(=O)Nc2ccn(C)c(=O)n2)c(=O)c2ccc(C(F)(F)F)cc12 [Final Cpd X112] | > 20 | 1.73 | 
33 | CC(C)c1nn(CC(=O)Nc2ccc3nncn3n2)c(=O)c2ccc(C(C)(C)F)cc12 [X-1010] | 3.11 | 0.017 | 
34 | CC(C)c1nn(CC(=O)Nc2ccc3nncn3c2)c(=O)c2ccc(N(C)C)cc12 [X-1046] | > 20 | 0.422 | 
35 | CC(C)c1nn(CC(=O)Nc2ccc3cnnn3c2)c(=O)c2ccc(C(F)(F)F)cc12 [Final Cpd X101] | > 20 | 1.28 | 
36 | CO[C@H]1C[C@H](NC(=O)Cn2nc(C(C)C)c3cc(C(F)(F)F)ccc3c2=O)C1 [Final Cpd X105] | > 20 | 1.52 | 
37 | CO[C@]1(C)C[C@H](NC(=O)Cn2nc(C(C)C)c3cc(C(F)(F)F)ccc3c2=O)C1 [Final Cpd X29, 2-(4-isopropyl-1-oxo-6-(trifluoromethyl)phthalazin-2(1H)-yl)-N-((1s,3s)-3-methoxy-3-methylcyclobutyl)acetamide] | > 20 | 0.216 | 
38 | CC(C)c1nn(CC(=O)Nc2ccc3cnn(C)c3n2)c(=O)c2ccc(Br)cc12 [X-1005] | > 20 | 1.47 | 
39 | CC(C)c1nn(CC(=O)N[C@H]2C[C@@](C)(O)C2)c(=O)c2ccc(C(C)(C)C)cc12 [X-1049] | > 20 | 0.426 | 
40 | CCc1nn(CC(=O)Nc2ccncn2)c(=O)c2ccccc12 [Final Cpd 12] | > 20 | > 20 | 
41 | CC(C)c1nn(CC(=O)NC2CC(C(F)(F)F)C2)c(=O)c2ccc(C(F)(F)F)cc12 (centres unmarked) [Final Cpd X77] | > 20 | 0.83 | 
42 | O=C(Cn1nc(C2CC2)c2cc(C(F)(F)F)ccc2c1=O)Nc1ccc2nncn2n1 [Final Cpd X34] | > 20 | 0.255 | 
43 | O=C(Cn1nc(CCC(F)(F)F)c2cc(C(F)(F)F)ccc2c1=O)Nc1ccc2nncn2c1 [Final Cpd X76] |  |  | EC50 (TNF): > 20 µM; IC50 (IL-1β): 0.829 µM
44 | CC(C)c1nn(CC(=O)N[C@H]2CC[C@@H]2O)c(=O)c2ccc(C(F)(F)F)cc12 [Final Cpd X56] | > 20 | 0.493 | 
45 | CC(C)c1nn(CC(=O)N[C@H]2C[C@@](C)(O)C2)c(=O)c2ccc(C(C)(C)O)cc12 [X-1043] | > 20 | 11 | 
46 | CC(C)c1nn(CC(=O)Nc2ncc3c(ncn3C)n2)c(=O)c2ccc(C(F)(F)F)cc12 [Final Cpd X80] | > 20 | 0.866 | 
47 | CC(C)c1nn(CC(=O)Nc2ccc3nncn3n2)c(=O)c2ccc(C3(F)CC3)cc12 [X-1007] | 2.13 | 0.015 | 
48 | CC(C)c1nn(CC(=O)Nc2ncc3nc[nH]c3n2)c(=O)c2ccc(C(F)(F)F)cc12 [Final Cpd X1, 2-(4-isopropyl-1-oxo-6-(trifluoromethyl)phthalazin-2(1H)-yl)-N-(9H-purin-2-yl)acetamide] | > 20 |  | 
